Where only a bound is given, the exact number is not on record here.

The record followed here is US9765075B2, “Substituted bridged urea analogs as sirtuin modulators” (GLAXOSMITHKLINE LLC, priority 2013, dated 2017).

The target of this test is T1, SIRT1 (Homo sapiens, UniProt Q96EB6).
T1 sequence (Q96EB6 1-747): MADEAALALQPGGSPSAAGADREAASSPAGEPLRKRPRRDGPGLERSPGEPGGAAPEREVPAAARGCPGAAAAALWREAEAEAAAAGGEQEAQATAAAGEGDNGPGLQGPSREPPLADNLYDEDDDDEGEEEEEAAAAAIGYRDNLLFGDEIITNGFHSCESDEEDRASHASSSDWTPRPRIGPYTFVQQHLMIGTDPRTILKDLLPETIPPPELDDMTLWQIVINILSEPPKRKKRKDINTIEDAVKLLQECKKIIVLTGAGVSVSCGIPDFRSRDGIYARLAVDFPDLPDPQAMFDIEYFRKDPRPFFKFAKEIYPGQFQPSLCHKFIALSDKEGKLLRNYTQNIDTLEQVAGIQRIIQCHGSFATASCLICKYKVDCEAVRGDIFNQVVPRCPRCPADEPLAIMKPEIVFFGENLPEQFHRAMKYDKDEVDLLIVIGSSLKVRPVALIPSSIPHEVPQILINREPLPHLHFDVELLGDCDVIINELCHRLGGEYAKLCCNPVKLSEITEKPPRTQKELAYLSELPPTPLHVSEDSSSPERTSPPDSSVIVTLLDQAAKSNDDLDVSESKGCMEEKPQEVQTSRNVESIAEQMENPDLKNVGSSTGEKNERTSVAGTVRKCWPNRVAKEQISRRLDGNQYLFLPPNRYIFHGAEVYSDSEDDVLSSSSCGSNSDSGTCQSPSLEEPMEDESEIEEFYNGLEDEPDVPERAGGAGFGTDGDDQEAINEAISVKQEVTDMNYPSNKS
Nature of the test: Trp mass spectrometry assay (SIRT1 activation). It is filed as biochemical. Conditions: Trp mass spectrometry assay; for Tryp AVG EC1.5 (μM): EC1.5 = concentration giving 150% activation of SIRT1; for Emax: percent maximum fold activation of SIRT1, read-out: Tryp % Fold Act. A digest of the protocol: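 Activation is expressed as EC1.5, the concentration raising activity 50% above DMSO control, and as maximum percent of control. Mass-spec readout was OAADPR or deacetylated Trp peptide after a formic-acid-quenched 25-min, 25 °C reaction: 10 nM bacterially expressed His-SIRT1, 0.5 μM acetyl-p53-derived peptide, 120 μM NAD+, pH 7.5 HEPES with […].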

As for `O=C(Nc1cc(-c2cnco2)ccn1)N1c2nc(-c3cccc(C(F)(F)F)c3)ccc2N2C[C@@H](O)[C@H]1C2` [Example 662], the “Tryp AVG EC1.5 (μM)” value is on record as “B (EC1.5 1-25 μM)” and the Emax is at least 150%.

Regarding `O=C(Nc1cccnc1)N1c2nc(-c3cccc(C(F)(F)F)c3)ccc2N2C[C@@H](O)[C@H]1C2` [Example 663], the “Tryp AVG EC1.5 (μM)” value is “A (EC1.5<1 μM)” and the Emax was at least 150%.

With `COc1cc(NC(=O)N2c3nc(-c4cccc(C(F)(F)F)c4)ccc3N3C[C@@H](O)[C@H]2C3)nc(OC)n1` [Example 664], the “Tryp AVG EC1.5 (μM)” value is on record as “B (EC1.5 1-25 μM)” and the Emax is at least 150%.

`O=C(Nc1cccc(-c2cnco2)c1)N1c2nc(-c3cccc(C(F)(F)F)c3)ccc2N2C[C@@H](O)[C@H]1C2` [Example 665]: the “Tryp AVG EC1.5 (μM)” value is reported as “A (EC1.5<1 μM)” and the Emax was at least 150%.

On to `O=C(Nc1ccc2[nH]ncc2c1)N1c2nc(-c3cccc(C(F)(F)F)c3)ccc2N2CC[C@H]1C2` [Example 666], for which the “Tryp AVG EC1.5 (μM)” value is listed as “A (EC1.5<1 μM)” and the Emax is at least 150%.

On to `O=C(Nc1cccc(-c2ccccn2)c1)N1c2nc(-c3cccc(C(F)(F)F)c3)ccc2N2CC[C@H]1C2` [Example 667], for which the “Tryp AVG EC1.5 (μM)” value was “A (EC1.5<1 μM)” and the Emax was at least 150%.

Turning to `CC(=O)c1ccc(NC(=O)N2c3nc(-c4cccc(C(F)(F)F)c4)ccc3N3CC[C@H]2C3)cc1` [Example 668], the “Tryp AVG EC1.5 (μM)” value is “A (EC1.5<1 μM)” and the Emax is at least 150%.

In the case of `O=C(Nc1ccncn1)N1c2nc(-c3cccc(C(F)(F)F)c3)ccc2N2C[C@@H](O)[C@H]1C2` [Example 669], the “Tryp AVG EC1.5 (μM)” value is “B (EC1.5 1-25 μM)” and the Emax was at least 150%.

For the compound `Cc1cncc(NC(=O)N2c3nc(-c4cccc(C(F)(F)F)c4)ccc3N3C[C@@H](O)[C@H]2C3)c1` [Example 670], the “Tryp AVG EC1.5 (μM)” value was “A (EC1.5<1 μM)” and the Emax was at least 150%.

In the case of `CC(=O)c1cccc(NC(=O)N2c3nc(-c4cccc(C(F)(F)F)c4)ccc3N3CC[C@H]2C3)c1` [Example 671], the “Tryp AVG EC1.5 (μM)” value is given as “A (EC1.5<1 μM)” and the Emax is at least 150%.

Consider `O=C(Nc1ccc(Br)c(-c2cnco2)c1)N1c2nc(-c3cccc(C(F)(F)F)c3)ccc2N2CC[C@H]1C2` [Example 672], for which the “Tryp AVG EC1.5 (μM)” value is given as “A (EC1.5<1 μM)” and the Emax was at least 150%.

For the compound `O=C(NCCCc1ccccn1)N1c2nc(-c3cccc(C(F)(F)F)c3)ccc2N2CC[C@H]1C2` [Example 673], the “Tryp AVG EC1.5 (μM)” value is on record as “B (EC1.5 1-25 μM)” and the Emax was at least 150%.

In the case of `O=C(NCCCc1cccnc1)N1c2nc(-c3cccc(C(F)(F)F)c3)ccc2N2CC[C@H]1C2` [Example 674], the “Tryp AVG EC1.5 (μM)” value is given as “B (EC1.5 1-25 μM)” and the Emax was at least 150%.

In the case of `O=C(Nc1ccccn1)N1c2nc(-c3cccc(Cl)c3)ccc2N2C[C@@H](O)[C@H]1C2` [Example 675], the “Tryp AVG EC1.5 (μM)” value is “B (EC1.5 1-25 μM)” and the Emax is at least 150%.

On to `Cc1cncc(NC(=O)N2c3nc(-c4cccc(Cl)c4)ccc3N3C[C@@H](O)[C@H]2C3)c1` [Example 676], for which the “Tryp AVG EC1.5 (μM)” value is “A (EC1.5<1 μM)” and the Emax was at least 150%.

For the compound `O=C(Nc1cncc(F)c1)N1c2nc(-c3cccc(Cl)c3)ccc2N2C[C@@H](O)[C@H]1C2` [Example 677], the “Tryp AVG EC1.5 (μM)” value is reported as “B (EC1.5 1-25 μM)” and the Emax was at least 150%.

As to `O=C(Nc1cnccn1)N1c2nc(-c3cccc(Cl)c3)ccc2N2C[C@@H](O)[C@H]1C2` [Example 678], the “Tryp AVG EC1.5 (μM)” value is on record as “C (EC1.5>25 μM)” and the Emax was under 150%.

As for `COc1cc(NC(=O)N2c3nc(-c4cccc(Cl)c4)ccc3N3C[C@@H](O)[C@H]2C3)ncn1` [Example 679], the “Tryp AVG EC1.5 (μM)” value was “B (EC1.5 1-25 μM)” and the Emax is at least 150%.

In the case of `COc1cc(NC(=O)N2c3nc(-c4cccc(Cl)c4)ccc3N3C[C@@H](O)[C@H]2C3)nc(OC)n1` [Example 680], the “Tryp AVG EC1.5 (μM)” value is on record as “B (EC1.5 1-25 μM)” and the Emax was at least 150%.

Regarding `O=C(Nc1cccnc1)N1c2nc(-c3cccc(Cl)c3)ccc2N2C[C@@H](O)[C@H]1C2` [Example 681], the “Tryp AVG EC1.5 (μM)” value is “B (EC1.5 1-25 μM)” and the Emax is at least 150%.

In the case of `O=C(Nc1cccnn1)N1c2nc(-c3cccc(Cl)c3)ccc2N2C[C@@H](O)[C@H]1C2` [Example 682], the “Tryp AVG EC1.5 (μM)” value is “B (EC1.5 1-25 μM)” and the Emax is at least 150%.

Consider `O=C(Nc1cccc(-c2cnco2)c1)N1c2nc(-c3cccc(Cl)c3)ccc2N2C[C@@H](O)[C@H]1C2` [Example 683], for which the “Tryp AVG EC1.5 (μM)” value is listed as “A (EC1.5<1 μM)” and the Emax is at least 150%.

`O=C(Nc1ccncn1)N1c2nc(-c3cccc(Cl)c3)ccc2N2C[C@@H](O)[C@H]1C2` [Example 684]: the “Tryp AVG EC1.5 (μM)” value was “B (EC1.5 1-25 μM)” and the Emax was at least 150%.

Consider `O=C(Nc1cc(-c2cnco2)ccn1)N1c2nc(-c3cccc(Cl)c3)ccc2N2C[C@@H](O)[C@H]1C2` [Example 685], for which the “Tryp AVG EC1.5 (μM)” value was “B (EC1.5 1-25 μM)” and the Emax was at least 150%.

For `Cc1nc(NC(=O)N2c3nc(-c4cccc(Cl)c4)ccc3N3C[C@@H](O)[C@H]2C3)sc1C` [Example 688], the “Tryp AVG EC1.5 (μM)” value is “B (EC1.5 1-25 μM)” and the Emax is at least 150%.

Consider `O=C(NCCCCn1ccnc1)N1c2nc(-c3cccc(C(F)(F)F)c3)ccc2N2CC[C@H]1C2` [Example 689], for which the “Tryp AVG EC1.5 (μM)” value is “B (EC1.5 1-25 μM)” and the Emax is at least 150%.

With `Cc1cncc(NC(=O)N2c3nc(-c4cncc(C(F)(F)F)c4)ccc3N3C[C@@H](O)[C@H]2C3)c1` [Example 690], the “Tryp AVG EC1.5 (μM)” value is “B (EC1.5 1-25 μM)” and the Emax was at least 150%.

Consider `O=C(Nc1cncc(F)c1)N1c2nc(-c3cncc(C(F)(F)F)c3)ccc2N2C[C@@H](O)[C@H]1C2` [Example 691], for which the “Tryp AVG EC1.5 (μM)” value was “B (EC1.5 1-25 μM)” and the Emax is at least 150%.

`O=C1CN2C[C@H]1N(C(=O)Nc1cccc(-c3cnco3)c1)c1nc(-c3cccc(C(F)(F)F)c3)ccc12` [Example 692]: the “Tryp AVG EC1.5 (μM)” value is “A (EC1.5<1 μM)” and the Emax was at least 150%.

For the compound `O=C(Nc1cccc(-c2cnco2)n1)N1c2nc(-c3cccc(Cl)c3)ccc2N2C[C@@H](O)[C@H]1C2` [Example 693], the “Tryp AVG EC1.5 (μM)” value is “A (EC1.5<1 μM)” and the Emax is at least 150%.

On to `O=C(Nc1ccccn1)N1c2nc(-c3cncc(C(F)(F)F)c3)ccc2N2C[C@@H](O)[C@H]1C2` [Example 694], for which the “Tryp AVG EC1.5 (μM)” value is reported as “A (EC1.5<1 μM)” and the Emax is at least 150%.

On to `O=C(Nc1cnccn1)N1c2nc(-c3cncc(C(F)(F)F)c3)ccc2N2C[C@@H](O)[C@H]1C2` [Example 695], for which the “Tryp AVG EC1.5 (μM)” value is “B (EC1.5 1-25 μM)” and the Emax was at least 150%.

For `COc1cc(NC(=O)N2c3nc(-c4cncc(C(F)(F)F)c4)ccc3N3C[C@@H](O)[C@H]2C3)ncn1` [Example 696], the “Tryp AVG EC1.5 (μM)” value was “B (EC1.5 1-25 μM)” and the Emax is at least 150%.

For `Cc1nc(NC(=O)N2c3nc(-c4cncc(C(F)(F)F)c4)ccc3N3C[C@@H](O)[C@H]2C3)sc1C` [Example 697], the “Tryp AVG EC1.5 (μM)” value is “B (EC1.5 1-25 μM)” and the Emax is at least 150%.

On to `O=C(Nc1cccc(-c2cnco2)n1)N1c2nc(-c3cccc(C(F)(F)F)c3)ccc2N2C[C@@H](O)[C@H]1C2` [Example 698], for which the “Tryp AVG EC1.5 (μM)” value is listed as “A (EC1.5<1 μM)” and the Emax is at least 150%.

Consider `Cc1nc(NC(=O)N2c3nc(-c4cccc(C(F)(F)F)c4)ccc3N3C[C@@H](O)[C@H]2C3)sc1C` [Example 699], for which the “Tryp AVG EC1.5 (μM)” value is on record as “B (EC1.5 1-25 μM)” and the Emax was at least 150%.

`O=C(Nc1ccncn1)N1c2nc(-c3cncc(C(F)(F)F)c3)ccc2N2C[C@@H](O)[C@H]1C2` [Example 700]: the “Tryp AVG EC1.5 (μM)” value is “B (EC1.5 1-25 μM)” and the Emax is at least 150%.

On to `O=C(Nc1cccnn1)N1c2nc(-c3cncc(C(F)(F)F)c3)ccc2N2C[C@@H](O)[C@H]1C2` [Example 701], for which the “Tryp AVG EC1.5 (μM)” value is “B (EC1.5 1-25 μM)” and the Emax was at least 150%.

For the compound `O=C(Nc1cccc(-c2cnco2)n1)N1c2nc(-c3cncc(C(F)(F)F)c3)ccc2N2C[C@@H](O)[C@H]1C2` [Example 703], the “Tryp AVG EC1.5 (μM)” value is “A (EC1.5<1 μM)” and the Emax is at least 150%.

`COc1cc(NC(=O)N2c3nc(-c4cncc(C(F)(F)F)c4)ccc3N3C[C@@H](O)[C@H]2C3)nc(OC)n1` [Example 704]: the “Tryp AVG EC1.5 (μM)” value is listed as “B (EC1.5 1-25 μM)” and the Emax was at least 150%.
